# Measurements from patent US11013720B2, “Ganetespib-containing particle, pharmaceutical composition comprising the same, and their use in anticancer treatment” (NATIONAL CHIAO TUNG UNIVERSITY, priority 2019, dated 2021).
# Tests used:
# A549 cell line = test: In vitro anticancer effect against A549 cell line (MTT assay); assay type: cell-based; settings: Homo sapiens
# Description: (§1) The A549 cells described in section 1 of Experimental Materials were placed in a 24-well culture plate at 1×10^4 cells/well, followed by cultivation in DMEM supplemented with 10% FBS at 37° C. and 5% CO2. The A549 cells in the wells were respectively treated with the free ganetespib test solutions and the CHC-ganetespib test solutions. Specifically, 200 μL of a respective test solution was added into a corresponding well containing the A549 cells. The A549 cells which were not treated with the free ganetespib test solutions and the CHC-ganetespib test solutions served as a normal control. After the treatment, cultivation was conducted for 48 hours at 37° C. and 5% CO2.
# (§2) The respective resulting culture was subjected to washing twice with PBS after removal of the liquid in the well, and was subjected to determination of cell viability by virtue of the 3-(4,5-dimethylthiazol-2-yl)-2,5-diphenyltetrazoli-umbromide (MTT) assay. Specifically, a suitable amount of a MTT solution (having a MTT concentration of 1.9 mg/mL) was added to the respective culture, followed by incubation for 4 hours. The liquid in the well was removed, and dimethylsulfoxide (DMSO) was added into the well to dissolve formazan dye. Absorbance of the mixture in the well at 450 nm (0D450) was measured using a microplate reader (Tecan Sunrise, Switzerland). The cell viability (%) was calculated by substituting the absorbance into the following equation (2): D=(E/F)×100 (2) • D=cell viability (%) • E=OD450 of respective culture • F=OD450 of normal control
# (§3) IC50 (half maximal inhibitory concentration) of the free ganetespib and the CHC-ganetespib particle agasint A549 cell line was determined based on the free ganetespib concentrations and the CHC-ganetespib particle concentrations, respectively, as well as the cell viability resulting from such concentrations.
# H1299 cell line = test: In vitro anticancer effect against H1299 cell line (MTT assay); assay type: cell-based; settings: Homo sapiens, NCI-H1299
# Description: as §1, §2, §3
# The in vitro anticancer effect of the free ganetespib and the CHC-ganetespib particle agasint H1299 cell line was determined generally according to the method described in section B of this example, except that the H1299 cells described in section 1 of Experimental Materials were placed in a 24-well culture plate at 5×10^4 cells/well, followed by cultivation in RPMI medium supplemented with 10% FBS.
smiles,measurement,setting,value
"CC(C)c1cc(-c2nnc(O)n2-c2ccc3c(ccn3C)c2)c(O)cc1O [Free ganetespib, 4-[5-hydroxy-4-(1-methyl-1H-indol-5-yl)-4H-1,2,4-triazol-3-yl]-6-(propan-2-yl)benzene-1,3-diol]",viability at 0.0015625 µg/mL,"A549 cell line; A549, 1.5625 ng/mL, 48 hours",98%
same,viability at 0.003125 µg/mL,"A549 cell line; A549, 3.125 ng/mL, 48 hours",70%
same,viability at 0.00625 µg/mL,"A549 cell line; A549, 6.25 ng/mL, 48 hours",52%
same,viability at 0.0125 µg/mL,"A549 cell line; A549, 12.5 ng/mL, 48 hours",40%
same,viability at 0.025 µg/mL,"A549 cell line; A549, 25 ng/mL, 48 hours",30%
same,IC50,"A549 cell line; A549, 48 hours, MTT",8.8 ng/mL
same,viability at 0.0015625 µg/mL,"H1299 cell line; H1299, 1.5625 ng/mL, 48 hours",93%
same,viability at 0.003125 µg/mL,"H1299 cell line; H1299, 3.125 ng/mL, 48 hours",85%
same,viability at 0.00625 µg/mL,"H1299 cell line; H1299, 6.25 ng/mL, 48 hours",55%
same,viability at 0.01 µg/mL,"H1299 cell line; H1299, 10 ng/mL, 48 hours",48%
same,viability at 0.02 µg/mL,"H1299 cell line; H1299, 20 ng/mL, 48 hours",23%
same,IC50,"H1299 cell line; H1299, 48 hours, MTT",10.3 ng/mL
